Results on 38 molecules are retold here after patent US8426447B2, “Spiro-tricyclic ring compounds as beta-secretase modulators and methods of use” (Amgen Inc., priority 2008, dated 2013).

Assay [1] concerns the target T1, BACE1 (Homo sapiens, UniProt P56817). The experiment in a line: In Vitro BACE Cell-based Assay (HEK cell assay): Aβ40 in conditioned medium of cells stably expressing Amyloid Precursor Protein, sandwich ELISA. In a few lines: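 HEK cells stably expressing APP were treated 24 h with compound in 10-point dose response starting at 100 or 10 μM (0.1% DMSO). Secreted Aβ40 quantified by sandwich ELISA (pAb40 capture, biotinylated 6E10 detection, europium time-resolved fluorescence), with IC50 derived from percent inhibition versus concentration.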

Assay [2] has as its target T1, BACE1. Kind of assay: In Vitro Enzymatic BACE FRET (Fluorescence Resonance Energy Transfer) Assay. Format: biochemical. Put shortly:
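Buffer: 0.05 M acetate, pH 4.2, 10% DMSO final, 100 uM genapol. Start: FRET substrate 50 nM. Incubation 1 h. Stop: Tris to neutral pH. Read: fluorescence.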

[3] abbreviates: Table IV, class symbols, read-out: HEK cell assay.
The mark [4] stands for this setting: Table IV, class symbols, read-out: BACE1 FRET assay.
The mark [5] stands for this setting: HEK cell-based assay, Aβ40 in conditioned medium, IC50 class symbols, read-out: HEK cell assay.
Setting [6] is: in vitro BACE FRET enzyme assay, IC50 class symbols, read-out: BACE1 FRET assay.
[7] abbreviates: Table III, IC50's in uM ranges, read-out: HEK cell assay.
The mark [8] stands for this setting: Table III, IC50's in uM ranges, read-out: BACE1 FRET assay.
[9] abbreviates: HEK cells, read-out: HEK cell assay.

Where only a bound is given, the exact number is not on record here.

T1 sequence (P56817 46-501, species assumed): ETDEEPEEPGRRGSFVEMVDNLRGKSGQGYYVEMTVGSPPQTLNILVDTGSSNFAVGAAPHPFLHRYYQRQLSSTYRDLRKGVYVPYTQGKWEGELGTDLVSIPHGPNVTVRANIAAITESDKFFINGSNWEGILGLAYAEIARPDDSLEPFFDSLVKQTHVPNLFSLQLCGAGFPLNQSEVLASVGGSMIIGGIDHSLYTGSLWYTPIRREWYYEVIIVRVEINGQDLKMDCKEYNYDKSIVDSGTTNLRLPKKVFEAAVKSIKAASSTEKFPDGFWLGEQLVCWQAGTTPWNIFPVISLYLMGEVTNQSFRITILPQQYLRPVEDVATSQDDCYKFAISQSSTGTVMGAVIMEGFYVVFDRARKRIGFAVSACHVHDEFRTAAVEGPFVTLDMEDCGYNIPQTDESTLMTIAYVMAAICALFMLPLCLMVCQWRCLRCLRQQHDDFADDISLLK

On to `CCOc1ccc(-c2cnc3c(c2)[C@]2(COC(N)=N2)c2cc(OCC(C)(C)C)ccc2O3)cn1` [compound 804], for which the IC50 in assay [1] (setting [3]) and in assay [2] (setting [4]) was less than 0.1 µM each time.

As for `CC(C)(C)COc1ccc2c(c1)[C@]1(COC(N)=N1)c1cc(C(=O)N3CCC3)ccc1O2` [compound 608], the IC50 in assay [1] (setting [3]) and in assay [2] (setting [4]) was 0.1 to 1 µM throughout.

In the case of `Cc1cccc(-c2ccc3c(c2)[C@]2(COC(N)=N2)c2cccnc2O3)c1` [compound 596], the results for the IC50 in assay [1] (setting [3]) and in assay [2] (setting [4]) were 1 to 5 µM and 0.1 to 1 µM, respectively.

On to `NC1=N[C@]2(CO1)c1cc(-c3cncnc3)ccc1Oc1c(F)cccc12` [compound 552], for which the IC50 in assay [1] (setting [3]) and in assay [2] (setting [4]) was greater than 5 µM each time.

As for `COc1ccc2c(c1)[C@]1(COC(N)=N1)c1cc(-c3cncc4ccccc34)ccc1O2` [compound 634], the IC50 lay within 1 to 5 µM in assay [1] (setting [3]) and 0.1 to 1 µM in assay [2] (setting [4]).

On to `CC(C)(C)COc1ccc2c(c1)[C@]1(COC(N)=N1)c1cc(-c3ccsc3)ccc1O2` [compound 833], for which the values for the IC50 in assay [1] (setting [3]) and in assay [2] (setting [4]) were 1 to 5 µM and less than 0.1 µM, respectively.

For the molecule `CC(C)(C)C#Cc1ccc2c(c1)[C@]1(COC(N)=N1)c1cc(-c3cccnc3)cnc1O2` [compound 896], the figures for the IC50 in assay [1] (setting [3]) and in assay [2] (setting [4]) were 1 to 5 µM and 0.1 to 1 µM, respectively.

For `N#Cc1cccc(-c2cc3c(cn2)Oc2ccc(-c4cccnc4F)cc2[C@@]32COC(N)=N2)c1` [compound 373], the IC50 in assay [1] (setting [5]) and in assay [2] (setting [6]) was less than 0.1 µM each time.

For the molecule `Cn1cc(-c2ccc3c(c2)[C@]2(COC(N)=N2)c2cc(-c4cccnc4)ccc2O3)ccc1=O` [compound 611], the IC50 in assay [1] (setting [3]) was 0.1 to 1 µM; in assay [2] (setting [4]), less than 0.1 µM.

For `CC(C)(C)COc1ccc2c(c1)[C@]1(COC(N)=N1)c1cc(C(=O)NC3CC3)ccc1O2` [compound 798], the IC50 in assay [1] (setting [3]) and in assay [2] (setting [4]) was less than 0.1 µM throughout.

Turning to `CC(C)(C)COc1ccc2c(c1)[C@@]1(COC(N)=N1)c1cc(-c3ccc(F)nc3)cnc1O2` [compound 951], the IC50 in assay [1] (read-out: HEK cell assay) and in assay [2] (read-out: BACE1 FRET assay) was less than 0.1 µM in each case.

Take `Cc1cc(-c2ccc3c(c2)[C@]2(COC(N)=N2)c2cc(-c4cccnc4)ccc2O3)cc(=O)o1` [compound 390]: the IC50 in assay [1] (setting [5]) and in assay [2] (setting [6]) was less than 0.1 µM throughout.

Take `NC1=N[C@]2(CO1)c1cc(Br)ccc1Oc1ccc(Cl)nc12` [compound 856]: the IC50 in assay [1] (setting [3]) and in assay [2] (setting [4]) was greater than 5 µM each time.

Regarding `Cc1nn(C)c(C)c1-c1ccc2c(c1)[C@@]1(COC(N)=N1)c1cc(OCC(C)(C)C)ccc1O2` [compound 213], the figures for the IC50 in assay [1] (setting [7]) and in assay [2] (setting [8]) were 1 to 5 µM and 0.1 to 1 µM, respectively.

On to `CC(C)(C)COc1ccc2c(c1)[C@]1(COC(N)=N1)c1cc(-c3cccnn3)ccc1O2` [compound 649], for which the IC50 is 0.1 to 1 µM in assay [1] (setting [3]) and less than 0.1 µM in assay [2] (setting [4]).

Regarding `Cc1nc(-c2ccc3c(c2)[C@]2(COC(N)=N2)c2cc(-c4cccnc4)ccc2O3)cs1` [compound 679], the IC50 in assay [1] (read-out: HEK cell assay) and in assay [2] (read-out: BACE1 FRET assay) was less than 0.1 µM throughout.

Regarding `CC(C)(C)COc1ccc2c(c1)[C@]1(COC(N)=N1)c1cc(-c3ccc(N4CCOCC4)nc3)ccc1O2` [compound 912], the IC50 in assay [1] (setting [3]) was greater than 5 µM; in assay [2] (setting [4]), 1 to 5 µM.

Regarding `CC(C)(C)COc1ccc2c(c1)[C@@]1(COC(N)=N1)c1ccccc1O2` [compound 665], the results for the IC50 in assay [1] (read-out: HEK cell assay) and in assay [2] (read-out: BACE1 FRET assay) were 1 to 5 µM and 0.1 to 1 µM, respectively.

Turning to `COc1cncc(-c2ccc3c(c2)[C@@]2(COC(N)=N2)c2cc(C#CC(C)(C)C)cnc2O3)c1` [compound 643], the IC50 in assay [1] (setting [3]) and in assay [2] (setting [4]) was less than 0.1 µM in each case.

Turning to `Cc1ccc(-c2ccc3c(c2)[C@]2(COC(N)=N2)c2cc(OCC(C)(C)C)ccc2O3)cn1` [compound 786], the IC50 in assay [1] (read-out: HEK cell assay) and in assay [2] (read-out: BACE1 FRET assay) was 0.1 to 1 µM in each case.

As for `COc1cc(F)c2c(c1)[C@@]1(COC(N)=N1)c1cc(-c3cncnc3)cnc1O2` [compound 585], the IC50 in assay [1] (setting [3]) and in assay [2] (setting [4]) was greater than 5 µM each time.

Consider `CC(C)(C)C#Cc1cnc2c(c1)[C@@]1(COC(N)=N1)c1cc(Oc3ccccn3)ccc1O2` [compound 927], for which the IC50 was 1 to 5 µM in assay [1] (read-out: HEK cell assay) and 0.1 to 1 µM in assay [2] (read-out: BACE1 FRET assay).

Take `NC1=N[C@]2(CO1)c1cc(OCC3CCOC3)ccc1Oc1ccc(-c3cncnc3)cc12` (stereo partly drawn) [Example 132, (S)-2′-(pyrimidin-5-yl)-7′-((tetrahydrofuran-3-yl)methoxy)-5H-spiro[oxazole-4,9′-xanthen]-2-amine]: the IC50 was greater than 5 µM in assay [1] (setting [7]) and 1 to 5 µM in assay [2] (setting [8]).

As to `NC1=N[C@@]2(CO1)c1cc(-c3cccnc3)ccc1Oc1ccc(C3CC3)cc12` [compound 758], the IC50 was 0.1 to 1 µM in assay [1] (read-out: HEK cell assay) and less than 0.1 µM in assay [2] (read-out: BACE1 FRET assay).

Take `NC1=N[C@]2(CO1)c1ccccc1Oc1ccc(-c3cncc4ccccc34)cc12` [compound 629]: the IC50 was greater than 5 µM in assay [1] (setting [3]) and 1 to 5 µM in assay [2] (setting [4]).

As for `CC(C)(C)CCc1cc2c(cn1)Oc1ccc(-c3cncnc3)cc1[C@@]21COC(N)=N1` [compound 455], the IC50 in assay [1] (setting [9]) and in assay [2] (read-out: BACE1 FRET assay) was less than 0.1 µM in each case.

Turning to `COCC(=O)Nc1ccc2c(c1)[C@@]1(COC(N)=N1)c1cc(C#CC(C)(C)C)ccc1O2` [compound 324], the IC50 was 0.1 to 1 µM in assay [1] (setting [5]) and less than 0.1 µM in assay [2] (setting [6]).

Consider `NC1=N[C@]2(CO1)c1cc(OCC3CCCC3)ccc1Oc1ccc(-c3cncnc3)cc12` [Example 74, (4S)-2′-(cyclopentylmethoxy)-7′-(5-pyrimidinyl)spiro[1,3-oxazole-4,9′-xanthen]-2-amine], for which the IC50 was less than 0.1 µM in assay [1] (Table II, Aβ40, 24 h incubation, read-out: HEK cell assay) and less than 0.1 µM in assay [2] (Table II, read-out: BACE1 FRET assay).

As for `CC(=O)c1cc(-c2ccc3c(c2)[C@@]2(COC(N)=N2)c2cc(OCC(C)(C)C)ccc2O3)cs1` [compound 836], the IC50 in assay [1] (setting [3]) and in assay [2] (setting [4]) was 1 to 5 µM in each case.

`NC1=N[C@]2(CO1)c1cc(C3=CCOCC3)ccc1Oc1cnc(Cl)cc12` [compound 499]: the figures for the IC50 in assay [1] (setting [9]) and in assay [2] (read-out: BACE1 FRET assay) were greater than 5 µM and 1 to 5 µM, respectively.

Regarding `NC1=N[C@@]2(CO1)c1cc(-c3cccnc3)ccc1Oc1ccc(-c3ccsc3)cc12` [compound 672], the IC50 in assay [1] (read-out: HEK cell assay) and in assay [2] (read-out: BACE1 FRET assay) was less than 0.1 µM in each case.

As to `CC1(COc2cc3c(cc2F)Oc2ccc(-c4cncnc4)cc2[C@@]32COC(N)=N2)COC1` [compound 712], the IC50 in assay [1] (read-out: HEK cell assay) and in assay [2] (read-out: BACE1 FRET assay) was less than 0.1 µM each time.

For the molecule `Cc1noc(C)c1-c1ccc2c(c1)[C@@]1(COC(N)=N1)c1cc(OCC(C)(C)C)ccc1O2` [compound 976], the values for the IC50 in assay [1] (read-out: HEK cell assay) and in assay [2] (read-out: BACE1 FRET assay) were greater than 5 µM and 0.1 to 1 µM, respectively.

Turning to `CC1(COc2ccc3c(c2)[C@@]2(COC(N)=N2)c2cc(-c4cccc(F)c4)cnc2O3)COC1` [compound 774], the IC50 in assay [1] (read-out: HEK cell assay) and in assay [2] (read-out: BACE1 FRET assay) was less than 0.1 µM throughout.

`NC1=N[C@@]2(CO1)c1cc(-c3cccnc3F)ccc1Oc1cnc(C3=CCCCO3)cc12` [compound 371]: the IC50 in assay [1] (HEK cell assay (uM)) and in assay [2] (BACE1 FRET assay (uM)) was less than 0.1 µM throughout.

In the case of `NC1=N[C@]2(CO1)c1cc(-c3cccc(F)c3)ccc1Oc1ncc(C3=CCOCC3)cc12` [compound 690], the figures for the IC50 in assay [1] (read-out: HEK cell assay) and in assay [2] (read-out: BACE1 FRET assay) were greater than 5 µM and 1 to 5 µM, respectively.

Turning to `NC1=N[C@]2(CO1)c1cc(-c3ccccc3)ccc1Oc1ncccc12` [compound 598], the figures for the IC50 in assay [1] (setting [3]) and in assay [2] (setting [4]) were greater than 5 µM and 1 to 5 µM, respectively.

As for `COc1ccc2c(c1)[C@]1(COC(N)=N1)c1c(ccc(-c3cncnc3)c1F)O2` [compound 814], the IC50 was 0.1 to 1 µM in assay [1] (setting [3]) and less than 0.1 µM in assay [2] (setting [4]).
